US4591559A, “Antibiotic X-14934A and a method for its preparation” (Hoffmann-La Roche Inc., priority 1985, dated 1986)

System: E. Tenella
Test: Anti-coccidial activity against E. Tenella in chickens
Type: in vivo
Details: 75 PPM in feed
Protocol: This test utilizes ten chickens per drug group. Ten chickens are employed as a weight control and ten chickens as an infected control. The drug is given 48 hours in advance of the infection. One gm. of the test drug is mixed in a mechanical mixer with a sufficient amount of chicken feed to result in the desired dosage. The infection consists of approximately 200,000 oocysts given orally by pipette. The tests lasts for eleven days and the surviving bids are autopsied and examined for gross lesions in the ceca. The test bids are rated according to the number of survivors and the number of cecal lesions. The results are expressed as average degree of infection (A.D.I.). An average degree of infection of less than 2.5 is considered to be significant.

CC[C@@H](C(=O)[C@@H](C)[C@@H](O)[C@H](C)CCc1ccc(C)c(O)c1C(=O)O)[C@H]1O[C@](CC)([C@H]2CC[C@](O)(CC)[C@H](C)O2)C[C@@H]1C [Lasalocid]
Mort. %: 0%
Weight Gain %: 98%
Ave. Degree Infect. (<2.5 considered significant): 0.0
